According to paper PMC2665256 (Biochemical and biophysical research communications, 2009):

Target: acyl-coenzyme A:cholesterol acyltransferase (ACAT)
Format: biochemical, Mus musculus

| Structure (SMILES) | IC50 [nM] |
| --- | --- |
| CCCCCCCCCC[Si](C)(C)CCC(=O)NC(Cc1ccc(C)cc1)c1ccccc1 (centres unmarked) [58-035] | 400 ± 200 |
| Cc1ccc(Cn2nc(C(=O)N[C@@H]3C(C)(C)[C@@H]4CC[C@@]3(C)C4)cc2-c2ccc(Cl)c(C)c2)cc1 [SR144528] | 3600 ± 1100 |
